Key:
[1] = target: T1, nAChR subtype alpha4beta2 (Homo sapiens, UniProt P17787+P43681); details: cited from earlier work
T1 construct: expressed in transfected cells

[2] = target: T2, nAChR subtype alpha3beta2 (Homo sapiens, UniProt P17787+P32297); details: cited from earlier work
T2 construct: expressed in transfected cells

[3] = target: T3, nAChR subtype alpha4alpha6beta2 (Homo sapiens, UniProt P17787+P43681+Q15825); details: cited from earlier work
T3 construct: expressed in transfected cells

[4] = target: T4, nAChR subtype alpha3alpha5beta4 (Homo sapiens, UniProt P30926+P32297); details: cited from earlier work
T4 construct: expressed in transfected cells

[5] = target: T5, nAChR subtype alpha3beta4 (Homo sapiens, UniProt P30926+P32297); details: cited from earlier work
T5 construct: expressed in transfected cells

[6] = target: T6, nAChR subtype alpha7 (Homo sapiens, UniProt P36544); details: cited from earlier work
T6 construct: expressed in transfected cells

[7] = target: T7, nAChR subtype alpha6beta2 (Homo sapiens, UniProt P17787+Q15825); details: cited from earlier work
T7 construct: expressed in transfected cells

[8] = target: T6, nAChR subtype alpha7; experiment: nAChR agonist response (ACh-normalised evoked current), subtype alpha7; assay type: cell-based; details: 300 micromolar concentration
Description: In general, a nAChR agonist is a full agonist if it evokes a response upon binding to a given receptor that is equal or greater to that of ACh.
nAChR agonist response, from which receptor activation can be determined can, for example, be generated using an appropriate cell-based assay. Cells designed to express a particular nAChR receptor subtype and generate an electrical current response when bound to and activated by a nAChR agonist can be used to characterize the agonist profile of a compound and the amount of receptor activation thus determined. An example of a generic protocol is described below.
Cells that express a particular human nAChR subtype are first exposed to ACh. ACh binds and activates the receptor, thereby evoking a current. The concentration of the ACh is chosen to elicit the maximum response of the receptor (e.g., 1280 micromolar ACh). This current is recorded as the ACh response and serves as the 100% nAChR agonist response and to which responses to other nAChR agonists are compared. […]
The current evoked by exposure to the nAChR agonist is measured and recorded for each nAChR concentration. […] The nAChR agonist response is then calculated as a percentage of the ACh response.
A nAChR agonist evoking a response equal to or greater than the maximum ACh response determined at the same receptor type is a full agonist. […]

T6 sequence (P36544 23-502): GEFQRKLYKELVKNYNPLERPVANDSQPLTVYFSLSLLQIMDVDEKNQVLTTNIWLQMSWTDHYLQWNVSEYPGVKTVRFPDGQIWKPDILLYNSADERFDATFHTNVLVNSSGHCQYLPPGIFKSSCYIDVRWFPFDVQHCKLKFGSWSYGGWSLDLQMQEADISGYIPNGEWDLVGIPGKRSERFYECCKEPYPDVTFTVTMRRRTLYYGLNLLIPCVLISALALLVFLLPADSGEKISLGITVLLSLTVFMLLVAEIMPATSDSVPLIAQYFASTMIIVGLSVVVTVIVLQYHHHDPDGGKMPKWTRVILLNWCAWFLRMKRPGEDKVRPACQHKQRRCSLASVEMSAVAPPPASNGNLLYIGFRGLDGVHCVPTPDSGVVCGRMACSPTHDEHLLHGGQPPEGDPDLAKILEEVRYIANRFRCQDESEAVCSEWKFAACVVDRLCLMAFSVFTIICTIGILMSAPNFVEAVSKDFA
T5 sequence (P32297 32-505): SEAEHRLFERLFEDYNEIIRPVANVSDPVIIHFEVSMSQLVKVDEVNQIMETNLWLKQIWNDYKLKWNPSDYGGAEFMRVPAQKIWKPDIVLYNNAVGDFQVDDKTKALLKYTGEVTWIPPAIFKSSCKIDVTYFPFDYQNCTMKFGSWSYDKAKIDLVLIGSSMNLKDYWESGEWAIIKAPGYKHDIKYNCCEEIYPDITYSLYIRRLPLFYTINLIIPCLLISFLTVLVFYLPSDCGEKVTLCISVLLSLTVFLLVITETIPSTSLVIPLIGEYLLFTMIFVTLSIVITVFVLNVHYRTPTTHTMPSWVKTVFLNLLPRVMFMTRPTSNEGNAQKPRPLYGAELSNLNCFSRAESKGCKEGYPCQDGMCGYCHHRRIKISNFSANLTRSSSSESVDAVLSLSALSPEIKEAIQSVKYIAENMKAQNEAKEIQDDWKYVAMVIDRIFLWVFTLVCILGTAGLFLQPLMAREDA
T5 sequence (P30926 22-498): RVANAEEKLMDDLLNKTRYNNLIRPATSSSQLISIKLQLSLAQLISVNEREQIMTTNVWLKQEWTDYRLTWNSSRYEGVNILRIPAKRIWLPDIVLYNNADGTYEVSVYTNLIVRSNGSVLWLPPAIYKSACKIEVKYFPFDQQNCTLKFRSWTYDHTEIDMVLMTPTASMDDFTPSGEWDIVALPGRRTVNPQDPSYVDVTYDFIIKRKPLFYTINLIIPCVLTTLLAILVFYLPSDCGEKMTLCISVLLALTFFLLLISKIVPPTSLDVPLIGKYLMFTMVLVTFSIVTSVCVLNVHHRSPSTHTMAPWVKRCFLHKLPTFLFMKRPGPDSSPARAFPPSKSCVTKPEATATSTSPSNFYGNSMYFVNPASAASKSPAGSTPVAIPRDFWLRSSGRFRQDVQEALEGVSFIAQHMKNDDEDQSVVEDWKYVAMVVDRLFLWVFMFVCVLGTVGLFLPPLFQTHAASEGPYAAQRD
T4 sequence (P32297 32-505): as the sequence (P32297 32-505) above
T4 sequence (P30532 23-468 partner): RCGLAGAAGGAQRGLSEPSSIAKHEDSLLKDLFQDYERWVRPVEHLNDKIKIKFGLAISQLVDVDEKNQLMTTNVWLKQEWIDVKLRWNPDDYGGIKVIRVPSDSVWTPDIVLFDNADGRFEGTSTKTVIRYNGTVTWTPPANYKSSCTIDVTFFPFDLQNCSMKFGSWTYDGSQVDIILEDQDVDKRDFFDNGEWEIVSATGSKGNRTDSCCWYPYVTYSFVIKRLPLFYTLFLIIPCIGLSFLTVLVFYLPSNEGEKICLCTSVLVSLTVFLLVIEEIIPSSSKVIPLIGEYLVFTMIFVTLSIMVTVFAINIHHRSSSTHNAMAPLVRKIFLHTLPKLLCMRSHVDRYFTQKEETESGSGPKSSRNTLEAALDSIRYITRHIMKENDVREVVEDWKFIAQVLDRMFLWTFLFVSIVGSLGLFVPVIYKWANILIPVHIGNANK
T4 sequence (P30926 22-498): as the sequence (P30926 22-498) above
T1 sequence (P43681 29-627 limits assumed): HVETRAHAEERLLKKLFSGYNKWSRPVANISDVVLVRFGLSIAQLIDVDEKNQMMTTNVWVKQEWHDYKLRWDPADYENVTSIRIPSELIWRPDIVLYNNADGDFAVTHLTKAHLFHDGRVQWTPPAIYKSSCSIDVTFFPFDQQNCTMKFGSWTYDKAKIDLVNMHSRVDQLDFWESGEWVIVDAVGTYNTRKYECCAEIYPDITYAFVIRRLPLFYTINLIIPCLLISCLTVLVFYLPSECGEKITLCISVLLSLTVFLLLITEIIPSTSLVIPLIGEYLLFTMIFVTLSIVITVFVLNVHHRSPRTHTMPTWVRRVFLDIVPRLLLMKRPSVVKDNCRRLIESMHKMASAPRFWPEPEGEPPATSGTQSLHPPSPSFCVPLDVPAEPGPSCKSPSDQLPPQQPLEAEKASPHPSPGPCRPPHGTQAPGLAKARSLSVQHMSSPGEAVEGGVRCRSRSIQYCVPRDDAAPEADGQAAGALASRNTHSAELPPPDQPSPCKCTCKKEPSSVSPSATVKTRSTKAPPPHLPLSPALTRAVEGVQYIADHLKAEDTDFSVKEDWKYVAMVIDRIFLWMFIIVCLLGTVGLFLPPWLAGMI
T1 sequence (P17787 26-502): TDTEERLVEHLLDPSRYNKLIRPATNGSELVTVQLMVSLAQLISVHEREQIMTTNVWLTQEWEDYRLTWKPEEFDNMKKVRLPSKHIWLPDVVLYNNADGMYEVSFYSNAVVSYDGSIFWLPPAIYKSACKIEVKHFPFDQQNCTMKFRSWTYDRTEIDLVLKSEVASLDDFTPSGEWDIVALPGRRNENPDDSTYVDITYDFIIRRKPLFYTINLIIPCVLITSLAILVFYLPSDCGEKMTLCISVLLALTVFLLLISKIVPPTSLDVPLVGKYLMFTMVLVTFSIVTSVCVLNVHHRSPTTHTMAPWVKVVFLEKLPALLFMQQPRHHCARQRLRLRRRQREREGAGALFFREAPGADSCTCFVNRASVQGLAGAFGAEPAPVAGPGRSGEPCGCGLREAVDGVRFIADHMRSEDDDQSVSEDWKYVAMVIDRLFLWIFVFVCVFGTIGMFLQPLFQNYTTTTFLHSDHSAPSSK
T3 sequence (P43681 29-627 limits assumed): as the sequence (P43681 29-627 limits assumed) above
T3 sequence (Q15825 26-494): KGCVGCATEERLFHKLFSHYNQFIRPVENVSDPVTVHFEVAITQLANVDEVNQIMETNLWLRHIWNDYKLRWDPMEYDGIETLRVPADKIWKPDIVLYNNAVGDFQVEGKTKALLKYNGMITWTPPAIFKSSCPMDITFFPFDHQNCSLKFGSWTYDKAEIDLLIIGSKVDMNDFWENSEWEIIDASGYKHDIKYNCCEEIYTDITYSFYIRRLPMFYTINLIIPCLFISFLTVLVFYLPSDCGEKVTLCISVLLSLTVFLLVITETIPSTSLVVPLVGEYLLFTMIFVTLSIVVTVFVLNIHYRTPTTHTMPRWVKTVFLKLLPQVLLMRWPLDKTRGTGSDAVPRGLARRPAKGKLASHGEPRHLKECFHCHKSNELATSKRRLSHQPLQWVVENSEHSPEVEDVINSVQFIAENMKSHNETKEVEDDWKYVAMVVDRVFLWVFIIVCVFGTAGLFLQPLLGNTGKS
T3 sequence (P17787 26-502): as the sequence (P17787 26-502) above
T2 sequence (P32297 32-505): as the sequence (P32297 32-505) above
T2 sequence (P17787 26-502): as the sequence (P17787 26-502) above
T7 sequence (Q15825 26-494): as the sequence (Q15825 26-494) above
T7 sequence (P17787 26-502): as the sequence (P17787 26-502) above

Structure (SMILES)	agonist characterisation at nAChR subtype alpha4beta2 [1]	agonist characterisation at nAChR subtype alpha3beta2 [2]	agonist characterisation at nAChR subtype alpha4alpha6beta2 [3]	agonist characterisation at nAChR subtype alpha3alpha5beta4 [4]	agonist characterisation at nAChR subtype alpha3beta4 [5]	agonist characterisation at nAChR subtype alpha7 [6]	agonist characterisation at nAChR subtype alpha6beta2 [7]	evoked current as % of the maximal ACh-evoked current [8] [%]
C(=C\[C@H]1CCNC1)/c1cncnc1 [Compound 1, (R)-5-((E)-2-pyrrolidin-3-ylvinyl)pyrimidine]	full agonist	partial agonist	full agonist	full agonist	full agonist	weak partial agonist		
O=C(O)C(O)C(O)C(=O)O.c1cnc2cc3c(cc2n1)C1CNCC3C1 [Varenicline]	partial agonist		partial agonist	partial agonist	partial agonist	full agonist	partial agonist	
C(=C\[C@H]1CCNC1)/c1cncnc1.O=C(O)CC(O)(CC(=O)O)C(=O)O [compound 1 citrate, (R)-5-((E)-2-pyrrolidin-3-ylvinyl)pyrimidine mono-citrate]								25

— patent US20250352668A1, “AAV VECTOR ENCODING DIAMINE OXIDASE AND USES THEREOF” (OYSTER POINT PHARMA, INC., priority 2022, published 2025)
